Source: US20140206681A1, “BTK INHIBITORS” (priority 2013, published 2014)

What was measured:
[1] = biological target: T1, BTK enzyme (recombinant full-length BTK, hBTK) (Homo sapiens, UniProt Q06187); experiment: BTK enzyme activity assay, LANCE TR-FRET; type: biochemical; settings: 50 pM hBTK, 2 μM biotin-A5-peptide, 25 μM ATP; 60 min compound & enzyme incubation; read-out: IC50 BTK activity value
T1 construct: recombinant protein from baculovirus-transfected Sf9 cells: full-length BTK, 6HIS-tag cleaved; 6HIS (cleaved yes); made in house; host or cells: baculovirus-transfected Sf9 cells

HeLa cells = experiment: [3H]Adenosine uptake functional cellular assay; type: cell-based; settings: Homo sapiens, HeLa, accumulation of [3H]adenosine into HeLa cells; compound range 10 μM to […]; read-out: Adenosine uptake inhibition IC50
Method in brief: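 Inhibition of adenosine uptake was measured in HeLa cells (ATCC CCL-2) by following accumulation of tritiated adenosine. Cells were kept overnight at 37° C. with 5% (v/v) CO2, then switched to 40 μL HBSS plus 5% (v/v) FBS. 20 μL of 500 nM [3H]adenosine was added, and uptake was counted on a Topcount NXT reader.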

T1 sequence (Q06187 whole entry): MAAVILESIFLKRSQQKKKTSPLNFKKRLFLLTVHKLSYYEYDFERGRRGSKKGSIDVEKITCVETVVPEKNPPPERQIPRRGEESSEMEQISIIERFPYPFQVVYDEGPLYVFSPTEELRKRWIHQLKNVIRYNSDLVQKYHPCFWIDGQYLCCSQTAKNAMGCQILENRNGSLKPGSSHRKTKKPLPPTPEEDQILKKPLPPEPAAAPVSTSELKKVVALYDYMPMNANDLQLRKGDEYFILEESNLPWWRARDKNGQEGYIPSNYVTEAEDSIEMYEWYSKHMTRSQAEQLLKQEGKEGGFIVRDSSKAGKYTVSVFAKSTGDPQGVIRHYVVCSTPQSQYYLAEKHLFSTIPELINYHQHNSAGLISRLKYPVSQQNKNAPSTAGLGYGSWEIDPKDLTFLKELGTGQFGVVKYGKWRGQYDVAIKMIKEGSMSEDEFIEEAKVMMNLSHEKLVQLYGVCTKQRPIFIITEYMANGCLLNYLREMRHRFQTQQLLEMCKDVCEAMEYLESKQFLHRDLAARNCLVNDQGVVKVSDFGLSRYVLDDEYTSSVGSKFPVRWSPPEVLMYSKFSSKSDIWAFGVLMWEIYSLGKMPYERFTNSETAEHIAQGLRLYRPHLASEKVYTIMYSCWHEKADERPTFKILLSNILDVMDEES

IC50 [1]	IC50 (HeLa cells)	SMILES
0.22 nM	2880 nM	Nc1nccn2c([C@@H]3CC[C@H]4CN(CC(=O)O)CC(=O)N4C3)nc(-c3ccc(C(=O)Nc4cc(C(F)(F)F)ccn4)cc3)c12 [Example 108, {(7R,9aS)-7-[8-amino-1-(4-{[4-(trifluoromethyl)pyridin-2-yl]carbamoyl}phenyl)imidazo[1,5-a]pyrazin-3-yl]-4-oxooctahydro-2H-pyrido[1,2-a]pyrazin-2-yl}acetic acid]
6.3 nM	116 nM	C=C[C@@H]1OC(=O)N2C[C@H](c3nc(-c4ccc(C(=O)Nc5cc(C(F)(F)F)ccn5)cc4)c4c(N)nccn34)CC[C@@H]12 [Example 109, 4-{8-amino-3-[(1S,6R,8aS)-1-ethenyl-3-oxohexahydro[1,3]oxazolo[3,4-a]pyridin-6-yl]imidazo[1,5-a]pyrazin-1-yl}-N-[4-(trifluoromethyl)pyridin-2-yl]benzamide]
5.2 nM	458 nM	CN1CC[C@H]2CC[C@@H](c3nc(-c4ccc(C(=O)Nc5cc(C(F)(F)F)ccn5)cc4)c4c(N)nccn34)CN2C1=O [Example 111, 4-{8-amino-3-[(4aR,7R)-2-methyl-1-oxooctahydro-1H-pyrido[1,2-c]pyrimidin-7-yl]imidazo[1,5-a]pyrazin-1-yl}-N-[4-(trifluoromethyl)pyridin-2-yl]benzamide]
0.57 nM	415 nM	Nc1nccn2c([C@@H]3CC[C@H]4CCC(=O)N4C3)nc(-c3ccc(C(=O)Nc4cc(C(F)(F)F)ccn4)cc3Cl)c12 [Example 112, 4-{8-amino-3-[(6R,8aS)-3-oxooctahydroindolizin-6-yl]imidazo[1,5-a]pyrazin-1-yl}-3-chloro-N-[4-(trifluoromethyl)pyridin-2-yl]benzamide]
2.1 nM	102 nM	N#Cc1cnc(NC(=O)c2ccc(-c3nc([C@@H]4CC[C@H]5CCC(=O)N5C4)n4ccnc(N)c34)cc2)cc1C(F)(F)F [Example 117, 4-{8-amino-3-[(6R,8aS)-3-oxooctahydroindolizin-6-yl]imidazo[1,5-a]pyrazin-1-yl}-N-[5-cyano-4-(trifluoromethyl)pyridin-2-yl]benzamide]
0.58 nM	832 nM	Nc1nccn2c([C@@H]3CC[C@H]4CCC(=O)N4C3)nc(-c3ccc(C(=O)Nc4cc(C(F)(F)F)ccn4)cc3O)c12 [Example 118, 4-{8-amino-3-[(6R,8aS)-3-oxooctahydroindolizin-6-yl]imidazo[1,5-a]pyrazin-1-yl}-3-hydroxy-N-[4-(trifluoromethyl)pyridin-2-yl]benzamide]
6.3 nM	719 nM	N#Cc1cc(C(=O)Nc2cc(C(F)(F)F)ccn2)ccc1-c1nc([C@@H]2CC[C@H]3CCC(=O)N3C2)n2ccnc(N)c12 [Example 123, 4-{8-amino-3-[(6R,8aS)-3-oxooctahydroindolizin-6-yl]imidazo[1,5-a]pyrazin-1-yl}-3-cyano-N-[4-(trifluoromethyl)pyridin-2-yl]benzamide]
347 nM	≥ 10000 nM	NC(=O)c1cc(C(=O)Nc2cc(C(F)(F)F)ccn2)ccc1-c1nc([C@@H]2CC[C@H]3CCC(=O)N3C2)n2ccnc(N)c12 [Example 124, 4-{8-amino-3-[(6R,8aS)-3-oxooctahydroindolizin-6-yl]imidazo[1,5-a]pyrazin-1-yl}-N~1~-[4-(trifluoromethyl)pyridin-2-yl]benzene-1,3-dicarboxamide]
278 nM	645 nM	CC(C)c1cc(C(F)(F)F)cc(NC(=O)c2ccc(-c3nc([C@@H]4CC[C@H]5CCC(=O)N5C4)n4ccnc(N)c34)cc2)n1 [Example 125, 4-{8-amino-3-[(6R,8aS)-3-oxooctahydroindolizin-6-yl]imidazo[1,5-a]pyrazin-1-yl}-N-[6-(1-methylethyl)-4-(trifluoromethyl)pyridin-2-yl]benzamide]
2.5 nM	728 nM	COc1cc(C(=O)Nc2cc(C(F)(F)F)ccn2)c(F)cc1-c1nc([C@@H]2CC[C@H]3CCC(=O)N3C2)n2ccnc(N)c12 [Example 130, 4-{8-amino-3-[(6R,8aS)-3-oxooctahydroindolizin-6-yl]imidazo[1,5-a]pyrazin-1-yl}-2-fluoro-5-methoxy-N-[4-(trifluoromethyl)pyridin-2-yl]benzamide]
0.28 nM	1600 nM	COc1cc(C(=O)Nc2cc(C(F)(F)F)ccn2)cc(F)c1-c1nc([C@@H]2CC[C@H]3CCC(=O)N3C2)n2ccnc(N)c12 [Example 134, 4-{8-amino-3-[(6R,8aS)-3-oxooctahydroindolizin-6-yl]imidazo[1,5-a]pyrazin-1-yl}-3-fluoro-5-methoxy-N-[4-(trifluoromethyl)pyridin-2-yl]benzamide]
0.78 nM	1430 nM	CCOc1cc(C(=O)Nc2cc(C3CC3)ccn2)c(F)cc1-c1nc([C@@H]2CC[C@H]3CCC(=O)N3C2)n2c(Cl)cnc(N)c12 [Example 136, 4-{8-amino-5-chloro-3-[(6R,8aS)-3-oxooctahydroindolizin-6-yl]imidazo[1,5-a]pyrazin-1-yl}-N-(4-cyclopropylpyridin-2-yl)-5-ethoxy-2-fluorobenzamide]

More lines, now with the values behind:

SMILES	IC50 [1]	IC50 (HeLa cells)
C=C[C@H]1OC(=O)N2C[C@H](c3nc(-c4ccc(C(=O)Nc5cc(C(F)(F)F)ccn5)cc4)c4c(N)nccn34)CC[C@@H]12 [Example 110, 4-{8-amino-3-[(1R,6R,8aS)-1-ethenyl-3-oxohexahydro[1,3]oxazolo[3,4-a]pyridin-6-yl]imidazo[1,5-a]pyrazin-1-yl}-N-[4-(trifluoromethyl)pyridin-2-yl]benzamide]	16.8 nM	100 nM
CC(F)(F)c1cc(C(=O)Nc2cc(C(F)(F)F)ccn2)ccc1-c1nc([C@@H]2CC[C@H]3CCC(=O)N3C2)n2ccnc(N)c12 [Example 114, 4-{8-amino-3-[(6R,8aS)-3-oxooctahydroindolizin-6-yl]imidazo[1,5-a]pyrazin-1-yl}-3-(1,1-difluoroethyl)-N-[4-(trifluoromethyl)pyridin-2-yl]benzamide]	831 nM	587 nM
CCOc1cc(C(=O)Nc2cc(C(F)(F)F)n(C)n2)c(F)cc1-c1nc([C@@H]2CC[C@H]3CCC(=O)N3C2)n2c(Cl)cnc(N)c12 [Example 115, 4-(8-amino-5-chloro-3-((6R,8aS)-3-oxooctahydroindolizin-6-yl)imidazo[1,5-a]pyrazin-1-yl)-5-ethoxy-2-fluoro-N-(1-methyl-5-(trifluoromethyl)-1H-pyrazol-3-yl)benzamide]	0.67 nM	1690 nM
Nc1nccn2c([C@@H]3CC[C@H]4CCC(=O)N4C3)nc(-c3ccc(C(=O)Nc4cc(C(F)(F)F)ccn4)nc3)c12 [Example 119, 5-{8-amino-3-[(6R,8aS)-3-oxooctahydroindolizin-6-yl]imidazo[1,5-a]pyrazin-1-yl}-N-[4-(trifluoromethyl)pyridin-2-yl]pyridine-2-carboxamide]	3.3 nM	451 nM
Cc1cc(C(F)(F)F)cc(NC(=O)c2ccc(-c3nc([C@@H]4CC[C@H]5CCC(=O)N5C4)n4ccnc(N)c34)cc2)n1 [Example 120, 4-{8-amino-3-[(6R,8aS)-3-oxooctahydroindolizin-6-yl]imidazo[1,5-a]pyrazin-1-yl}-N-[6-methyl-4-(trifluoromethyl)pyridin-2-yl]benzamide]	4.8 nM	117 nM
Nc1nccn2c([C@@H]3CC[C@H]4CCC(=O)N4C3)nc(-c3ccc(C(=O)Nc4cc(C(F)(F)F)ccn4)cc3C(=O)O)c12 [Example 127, 2-{8-amino-3-[(6R,8aS)-3-oxooctahydroindolizin-6-yl]imidazo[1,5-a]pyrazin-1-yl}-5-{[4-(trifluoromethyl)pyridin-2-yl]carbamoyl}benzoic acid]	83.5 nM	5160 nM
CCOc1cc(C(=O)Nc2cc(C(F)(F)F)ccn2)ccc1-c1nc([C@@H]2CC[C@H]3CCC(=O)N3C2)n2c(Cl)cnc(N)c12 [Example 128, 4-{8-amino-5-chloro-3-[(6R,8aS)-3-oxooctahydroindolizin-6-yl]imidazo[1,5-a]pyrazin-1-yl}-3-ethoxy-N-[4-(trifluoromethyl)pyridin-2-yl]benzamide]	0.27 nM	1160 nM
COc1cccc(NC(=O)c2ccc(-c3nc([C@@H]4CC[C@H]5CCC(=O)N5C4)n4ccnc(N)c34)cc2)n1 [Example 129, 4-{8-amino-3-[(6R,8aS)-3-oxooctahydroindolizin-6-yl]imidazo[1,5-a]pyrazin-1-yl}-N-(6-methoxypyridin-2-yl)benzamide]	81.2 nM	39.3 nM
CCOc1cc(C(=O)Nc2cc(C(F)(F)F)n(C)n2)ccc1-c1nc([C@@H]2CC[C@H]3CCC(=O)N3C2)n2ccnc(N)c12 [Example 131, 4-{8-amino-3-[(6R,8aS)-3-oxooctahydroindolizin-6-yl]imidazo[1,5-a]pyrazin-1-yl}-3-ethoxy-N-[1-methyl-5-(trifluoromethyl)-1H-pyrazol-3-yl]benzamide]	0.74 nM	2780 nM
COc1cc(C(=O)Nc2cc(C(F)(F)F)ccn2)c(F)cc1-c1nc([C@@H]2CC[C@H]3CCC(=O)N3C2)n2c(Cl)cnc(N)c12 [Example 132, 4-{8-amino-5-chloro-3-[(6R,8aS)-3-oxooctahydroindolizin-6-yl]imidazo[1,5-a]pyrazin-1-yl}-2-fluoro-5-methoxy-N-[4-(trifluoromethyl)pyridin-2-yl]benzamide]	1.2 nM	1490 nM
CCOc1cc(C(=O)Nc2cc(C(F)(F)F)n(C)n2)ccc1-c1nc([C@@H]2CC[C@H]3CCC(=O)N3C2)n2c(Cl)cnc(N)c12 [Example 135, 4-{8-amino-5-chloro-3-[(6R,8aS)-3-oxooctahydroindolizin-6-yl]imidazo[1,5-a]pyrazin-1-yl}-3-ethoxy-N-[1-methyl-5-(trifluoromethyl)-1H-pyrazol-3-yl]benzamide]	0.23 nM	2150 nM
